Measurements taken from ChEMBL document CHEMBL3988442, “University of Dundee, Small-Polar-MMV Screening Library” (2021).

How the values were obtained:
[1] = microbe, parasite or virus in culture; conditions: Mycobacterium tuberculosis, 72 h, read-out: pIC50 (converted)
[2] = microbe, parasite or virus in culture; conditions: Mycobacterium tuberculosis, 96 h, read-out: pIC50 (converted)

Row | Structure (SMILES) | IC50 [1] [µM] | IC50 [2] [µM]
1 | CCNC(=O)c1cc(N2CCC(COC)CC2)ccn1 | 125 | > 501
2 | CCc1cccc2c1N(C(=O)CNC)CC2 | 367 | > 501
3 | Cc1cc(C)c(C#N)c(N2CCOCC(CO)C2)n1 (stereo not given) | > 501 | > 501
4 | CN(Cc1cccn1C)C(=O)c1ccccc1F | 219 | 262
5 | NCCCN1CCN(c2ccccc2F)CC1 | > 501 | > 501
6 | Cc1nnc(SCCN)s1 | > 501 | > 501
7 | CC(C)n1nnnc1SCCS(=O)(=O)c1ccccc1 | 82.8 | 164
8 | CC(C)(C)OC(=O)N1CCN(C2CCC(N)CC2)CC1 (stereo not given) | > 501 | > 501
9 | COC[C@H]1CCCN1c1nccc(-c2cnn(-c3ccccc3C)c2)n1 | 17.8 | 43.3
10 | FC(F)Oc1cccc(C2CNCCO2)c1 (stereo not given) | 34 | 112
11 | O=C(c1cccc2cc[nH]c12)N1CCSCC1 | > 501 | > 501
12 | Fc1ccc2nc(N3CCCNCC3)oc2c1F | 51.6 | 122
13 | NC(=O)CN(Cc1ccc(Br)cc1)C(=O)c1ccco1 | 427 | > 501
14 | CCC(CO)NC(=O)Cc1ccc(NC(=O)CC2=CCCCC2)cc1 (stereo not given) | > 50.1 | > 50.1
15 | COCCCSc1ccc(NCc2scnc2C)cc1 | 25.4 | 38.7
16 | Cc1cc(CN)on1 | 293 | 293
17 | Cc1ccc(CCNC(=O)CSCCN2CCCC2)o1 | 306 | > 501
18 | O=C(NCc1n[nH]c2c1CCCCC2)c1cnn2c1CCCC2 | > 50.1 | > 50.1
19 | NCCNS(=O)(=O)c1ccc(-c2ccccc2)cc1 | 160 | 171
20 | CNC(=O)CCN1CCC(=Cc2ccccc2)CC1 | 258 | > 501
21 | CCC1(CO)CCCN(C(=O)c2ccc(COC)s2)C1 (stereo not given) | 148 | 246
22 | CC(c1nc(COc2ccc(F)cc2)no1)S(C)(=O)=O (stereo not given) | 230 | 157
23 | CCC[C@@H]1CN(Cc2ccc3c(c2)OCCO3)C[C@H]1C(=O)O | > 50.1 | > 50.1
24 | COc1cccc(CNc2ccccc2CO)n1 | > 501 | > 501

Row | Structure (SMILES) | IC50 [1] [µM] | IC50 [2] [µM]
25 | COCCCOC1CN(C(=O)c2ccc(Cl)cn2)C1 | 2.73 | 84.6
26 | CCN(C)c1ccc(CNC(=O)CCn2cc(C)cn2)cc1F | > 50.1 | > 50.1
27 | c1cc2c(cc1C1=NN=C(NC3CC3)SC1)OCCO2 | 158 | 160
28 | Cc1nc(NCCSc2cnn[nH]2)c2c(C)noc2n1 | > 50.1 | > 50.1
29 | O=C1Nc2ccccc2NC12CCN(c1cccc(C(F)(F)F)n1)CC2 | > 50.1 | > 50.1
30 | Cc1cc(C)n(CC(=O)NCc2ccc(F)cc2)n1 | 216 | > 501
31 | CCc1ccc(C(=O)NC(C)c2cccnc2)o1 (stereo not given) | > 501 | > 501
32 | CNc1cccnc1N1CCCC1 | 22 | 41.3
33 | O=C(c1cccc(-n2cccn2)n1)N1CCCC1 | 59.6 | 163
34 | CC(C)OCc1cccc(CNc2cnn(C)c(=O)c2Cl)c1 | 19.1 | 5.63
35 | COc1ccc(NC(C(N)=O)c2ccc(Br)cc2)cn1 (stereo not given) | 148 | 198
36 | O=S(=O)(NCc1nccs1)N1CCc2ccccc2C1 | 133 | 146
37 | CCN(C1CC1)S(=O)(=O)c1ccc2c(c1)OCCO2 | 162 | > 501
38 | CC(C)N(C)S(=O)(=O)N(Cc1cccs1)Cc1cccs1 | 24.8 | > 50.1
39 | COCC(C)(CCO)NCC(=O)Nc1ccccc1I (stereo not given) | 238 | > 501
40 | CS(=O)(=O)NC[C@H]1Cn2c(-c3ccc(Cl)cc3)cnc2CO1 | > 50.1 | > 50.1
41 | Cc1nnc(SCCCNC(=O)c2cc(Cl)c[nH]2)s1 | 121 | 119
42 | COc1ccc(CNC(=O)CCC2CCCO2)cn1 (stereo not given) | 91.5 | > 501
43 | CSCC(C)(O)CNc1nnnn1-c1ccccc1 (stereo not given) | 306 | 290
44 | CCn1ccc(C(=O)N(C)Cc2cccnc2OC)n1 | > 501 | 212
45 | Cc1ccccc1-c1[nH][nH]c(=O)c1CCN | 230 | > 501
46 | Cc1cccc(N2CCN(CCCN)CC2)c1 | > 501 | > 501
47 | Cc1c(C(=O)NC[C@H]2CCCN2)n(C)c2ccccc12 | > 501 | > 501
48 | CC(NC(=O)CNc1ccccc1F)c1ccco1 (stereo not given) | 51.7 | 4.24

Row | Structure (SMILES) | IC50 [1] [µM] | IC50 [2] [µM]
49 | COc1cccc(NC(CN)c2ccccc2)c1 (stereo not given) | 187 | > 501
50 | CCc1nnc(CN(C)CC2CCCCC2)o1 | > 50.1 | –
51 | Cc1nnc(CN(Cc2ccccc2Br)C2CC2)o1 | 20.1 | –
52 | COc1cccc(-c2cnc(CNC(C)(C)c3nc(C)cs3)o2)c1 | – | > 50.1
53 | Cc1nc(-c2cc(F)c3c(c2)CC(CN)O3)c[nH]1 (stereo not given) | 2.55 | –
54 | CN(CCCOc1ccccc1)C(=O)c1csc(-c2nnc[nH]2)n1 | – | > 50.1
55 | Cc1cc(CC(=O)NCCCc2ccncc2)on1 | > 501 | –
56 | Cc1cc(F)ccc1CN1CCCC(O)(CN2CCCC2)C1 (stereo not given) | > 50.1 | –
57 | N#Cc1csc(CNCCOc2ccccc2)c1 | – | > 50.1
58 | CCc1c(C)nc(-n2nc(-c3cccs3)cc2N)[nH]c1=O | 44 | –
59 | COc1coc(CN2CCCC(CCc3c(F)cccc3F)C2)cc1=O (stereo not given) | – | 9.45
60 | Cn1ccc(CN2CCOCC23CCNCC3)n1 | – | > 50.1
61 | Cc1ccccc1NC1CCN(C(=O)CCc2ccco2)CC1 | > 50.1 | –
62 | CN(C)CCN1C(=O)CCC12CCCN(C(=O)c1cccnc1)CC2 (stereo not given) | – | > 50.1
63 | N#CCCCn1nnnc1Cc1ccc(Br)cc1 | > 50.1 | –
64 | CN1[C@H](CN2CCCC2)C[C@@H]2CN(C(=O)c3cccn3C)CC[C@@H]21 | – | > 50.1
65 | Cc1cccc(N2CCC3(CCCC(=O)N3)CC2)n1 | – | > 50.1
66 | O=C1N(c2ccccc2)C[C@H]2CN(C3CCC3)CCN12 | 7.22 | –
67 | COc1ccc(S(=O)(=O)N2CCC(Cn3ccnc3)CC2)cc1 | – | > 50.1
68 | CO[C@H]1C[C@@H]2CN(C(=O)c3ccc(C)s3)C[C@@H]2C1 | – | 22.3
69 | CCNC(=O)CCCC(=O)N1CCc2cc(Cl)cc(Cl)c2C1 | > 50.1 | –
70 | CC(C)CN1Cc2nc(N3CCCC3)ncc2C1=O | – | > 50.1
71 | CCCC1c2cccn2CCN1C(=O)Cn1cnc2sc(C)cc2c1=O (stereo not given) | – | > 50.1
72 | CC(C)CCC(=O)NCC(=O)N1CCCCCC1c1ccco1 (stereo not given) | – | 6.55

Row | Structure (SMILES) | IC50 [1] [µM] | IC50 [2] [µM]
73 | c1ccc(-c2nc3c(c(NCCc4c[nH]cn4)n2)CCNC3)cc1 | 10.9 | –
74 | O=C1N(Cc2ccc(F)cc2)CCCC12CCN(C1CCSCC1)C2 (stereo not given) | > 50.1 | –
75 | CN1CCCC1c1cc2cccnc2n1Cc1ccc(F)cc1 (stereo not given) | – | > 50.1
76 | Cc1cnn(-c2cccc(N3CCN(c4cc(C)nc(C)n4)CC3)n2)c1 | – | > 50.1
77 | Cc1cccc(-c2noc([C@@H]3Cc4nc[nH]c4CN3)n2)c1 | 1.94 | –
78 | Cc1nn(C)c2c(N3CCN(C)CC3)nc(C3CC3)nc12 | 47.6 | –
79 | CCN(C(=O)CCCOC)C(c1ccc(Cl)cc1)c1ccccn1 (stereo not given) | – | > 50.1
80 | COCCN(Cc1ccccc1)Cc1nc(-c2ccsc2)no1 | 20.5 | –
81 | CN(C)c1ccc(CNC(=O)c2ccc(Cl)cc2F)cc1 | – | > 50.1
82 | O=C(c1nn(-c2ccccc2F)cc1O)N1CCC2(CC1)OCCO2 | – | > 50.1
83 | Cc1cc(N2Cc3cnn(CCO)c3C2)nc(-c2ccccc2O)n1 | > 50.1 | –
84 | Cc1ccc(CNCC2Cn3nnc(-c4cccc(F)c4)c3CO2)o1 (stereo not given) | 8.85 | –
85 | O=C(CCC(F)(F)F)NCC1CCCS1 (stereo not given) | 8.35 | –
86 | COc1cccc(CN2CCCC2c2c(C)nn(C)c2C)c1 (stereo not given) | 46.9 | –
87 | CCCn1cc(Cl)c(C(=O)N2C[C@@H](O)[C@H](Oc3ccccc3)C2)n1 | > 50.1 | –
88 | Cc1cccc2cc(CO)c(N3Cc4cnc(C(C)(C)C)nc4C3)nc12 | > 50.1 | –
89 | Cc1cccc(NCc2ncc(C(C)(C)C)o2)c1 | – | 12
90 | Cc1noc(C[C@@H]2COC[C@H]3CN(C(=O)C4=CCCC4)C[C@@H]23)n1 | > 50.1 | –
91 | CCSc1ncc(CN2CCN(c3ncc(C)c(N)n3)CC2)cn1 | – | 20.4
92 | CNS(=O)(=O)c1cccc(C(C)NCc2ccc(C)c(C)c2)c1 (stereo not given) | – | > 50.1
93 | COc1cc(C(=O)NCCc2ccccc2OC)on1 | > 50.1 | –
94 | COc1ccc(C[C@H]2CN(C(=O)CN(C)C)CC[C@H]2OC)cc1 | – | > 50.1
95 | Cc1cc(NCCN)nc(-c2ccccc2O)n1 | > 50.1 | –
96 | NC1CCS(=O)(=O)c2ccc(Br)cc21 (stereo not given) | – | 89.1

Row | Structure (SMILES) | IC50 [1] [µM] | IC50 [2] [µM]
97 | O=C1N(Cc2ccc(F)c(F)c2)CCCC12CCN(C1CCCC1)C2 (stereo not given) | > 50.1 | –
98 | CCCc1nc(CN(CCO)Cc2cc(Br)ccc2F)no1 | 18.9 | –
99 | CCc1nc2c(NCC3COc4c(cccc4OC)C3)ncnc2o1 (stereo not given) | – | > 50.1
100 | Cc1csc(N2CCCN(CCC(=O)NC(N)=O)CC2)n1 | 39.4 | –
101 | Cc1cc2c(cc1Cl)C=CC1(CCN(CC(=O)N3CCCC3)CC1)O2 | > 50.1 | –
102 | Cc1ccc(NC(=O)c2ncc(C(N)=O)cc2Cl)cc1F | > 50.1 | –
103 | NCCn1nc(C2CCN(C(=O)Cc3ccccc3)C2)c2nccnc21 (stereo not given) | – | > 50.1
104 | Cc1noc(C)c1-c1cccc(C2CN(CC(=O)N(C)C)CCO2)n1 (stereo not given) | – | > 50.1
105 | O=c1oc(-c2ccc(F)cc2)nn1CC1CCOC1 (stereo not given) | 34.3 | –
106 | CC(C1CC1)N(C)Cc1nnc(-c2ccco2)o1 (stereo not given) | – | > 50.1
107 | CCOCc1nnc(NCc2ccsc2)o1 | – | 24.8
108 | CN1CCN(C(=O)c2cc3sccc3n2Cc2ccc(Cl)cc2)CC1 | – | > 50.1
109 | COc1cnc(C2(O)CCN(C(=O)c3cccnc3)CC2)c(OC)n1 | > 50.1 | –
110 | Cc1nc(CNC(=O)Nc2ccc3c(c2)CCCC(=O)N3)sc1C | > 50.1 | –
111 | CC(=O)N1CCC(N2CCOC[C@H]2c2nc(-c3ccc(Cl)s3)c[nH]2)CC1 | – | > 50.1
112 | Cc1cccnc1CN(C)C(C(=O)O)c1ccc(-c2ccn[nH]2)cc1 (stereo not given) | > 50.1 | –
113 | CO[C@H]1C[C@@H]2CN(C(=O)Cc3ccc(C)s3)C[C@@H]2C1 | – | > 50.1
114 | CC(Cn1cccn1)NS(=O)(=O)Cc1ccccc1 (stereo not given) | > 50.1 | –
115 | Cc1nc(CN2CCC(NS(C)(=O)=O)CC2)co1 | > 50.1 | –
116 | Fc1ccccc1CN1CCCC2(CCN(c3ncccn3)C2)C1 (stereo not given) | 30.4 | –
